Assay results reported in article PMC4104029, “Mechanism of Action of Compound-13: An α1-Selective Small Molecule Activator of AMPK” (Chemistry & Biology, 2014).
Read-outs that look alike come from different tables or passages of the source.

How the values were obtained:
[1] = biological target: T1, muscle glycogen phosphorylase b (Mus musculus, UniProt Q9WUB3); assay: Glycogen phosphorylase assay; format: biochemical; details: concentrations up to 100 μM; data not shown
T1 construct: made in house; host or cells: E. coli
T1 sequence (Q9WUB3 whole entry): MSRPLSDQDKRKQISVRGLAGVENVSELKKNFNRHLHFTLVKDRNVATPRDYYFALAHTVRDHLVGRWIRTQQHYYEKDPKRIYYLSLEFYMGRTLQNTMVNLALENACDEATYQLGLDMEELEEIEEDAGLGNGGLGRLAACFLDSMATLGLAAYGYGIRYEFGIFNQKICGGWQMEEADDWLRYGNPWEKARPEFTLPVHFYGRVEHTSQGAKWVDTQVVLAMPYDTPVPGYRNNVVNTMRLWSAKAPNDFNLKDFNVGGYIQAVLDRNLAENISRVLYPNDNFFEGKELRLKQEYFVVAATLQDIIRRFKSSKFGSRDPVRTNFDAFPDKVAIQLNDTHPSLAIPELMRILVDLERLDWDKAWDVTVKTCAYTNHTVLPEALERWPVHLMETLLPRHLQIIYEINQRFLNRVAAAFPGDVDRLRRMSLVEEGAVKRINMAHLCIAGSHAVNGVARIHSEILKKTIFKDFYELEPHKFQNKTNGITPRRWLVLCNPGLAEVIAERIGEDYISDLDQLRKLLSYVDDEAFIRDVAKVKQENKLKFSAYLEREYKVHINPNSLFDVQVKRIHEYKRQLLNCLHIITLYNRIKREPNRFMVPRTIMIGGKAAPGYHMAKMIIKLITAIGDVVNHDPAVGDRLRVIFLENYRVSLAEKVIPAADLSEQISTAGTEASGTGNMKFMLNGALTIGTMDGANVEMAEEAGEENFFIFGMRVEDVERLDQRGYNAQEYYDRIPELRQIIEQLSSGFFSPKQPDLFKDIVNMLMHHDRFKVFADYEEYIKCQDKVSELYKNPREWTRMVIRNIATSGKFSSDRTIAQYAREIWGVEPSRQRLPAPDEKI
Excerpt: Supplemental Experimental Procedures:
Materials. Compounds 2 and 13 were synthesised by PeakDale Molecular and Natalia Shpiro (MRC-PPU, Dundee), respectively, as described previously (Gomez-Galeno, et al., 2010).
A769662 was from Selleck Chemicals and AICAR from Toronto Research Chemicals. Mouse FBP1, PYGM and PFK1 (muscle isoform) were cloned, expressed and purified from E.coli using standard techniques. AMPD was purified from chicken muscle (Smiley, et al., 1967).
PP2Cα expressed in E.coli was from the Division of Signal Transduction Therapy (DSTT, Dundee). Peptides were synthesised by GL Biochem (Shanghai). [γ-32P]-ATP, [1-14C]-acetic acid and [9,10-3H(N)]-palmitic acid were from PerkinElmer. pS79 ACC1 (#3661), ACC1 […]
antibodies were purchased from Cell Signaling Technology. Anti-AMPKα1 (07-350) and AMPKα2 (07-363) used for immunoblotting were from Merck-Millipore. Anti-AMPKγ1 was from Origene (clone Y308). Anti-AMPKγ2 was from Epitomics (S1562). Anti-tubulin (B-5-1-2), anti-FLAG (F7425) and anti-FLAG M2 agarose were from Sigma. Anti-HA (HA.11) was from Covance Research Products. AMPKα1/2 antibodies used for immunoprecipitation kinase assays were described previously (Sakamoto, et al., 2006). […]
AMPK preparations. […] Isolated human AMPKα subunits were expressed as N-terminal GST-fusions in E.coli and activated as described for heterotrimeric complexes. […]

[2] = system: primary mouse hepatocytes (WT); assay: Lipid synthesis, [1-14C]acetate incorporation; format: cell-based; details: for IC50: Mus musculus, Hepatocyte
Procedure: Figure 5 C13 Inhibits Lipid Synthesis and Fatty Acid Esterification in Mouse Hepatocytes in an AMPK-Dependent Manner (A) Mouse hepatocytes were treated with the indicated concentrations of C13 and labeled with [1-^14C]acetate for 3 hr. A769662 (100 μM) and AICAR (0.5 mM) were included as positive controls. Rates of fatty acid and sterol synthesis were estimated by incorporation into saponifiable and nonsaponifiable lipids. Results are expressed as the mean acetate incorporated in micromoles per gram-hour ± SD and are representative of two independent experiments. (B) Mouse hepatocytes were treated with the indicated compounds for 30 min and labeled with media containing 0.5 mM palmitic acid (1 mCi⋅mmol^−1 [9,10-^3H]palmitic acid) for an additional 60 min. Incorporation into triglyceride was determined as described in Experimental Procedures and results are expressed as palmitate incorporated in micromoles per gram-hour ± SD and are representative of three independent experiments. (C and D) Mouse hepatocytes from WT or AMPK-null (AMPKα1^−/− -α2^−/−) mice were incubated with the indicated concentrations of C13 and labeled with [1-^14C]acetate for 3 hr. Rates of fatty acid and sterol synthesis were estimated from incorporation into saponifiable (C) and nonsaponifiable (D) lipids. Results are expressed as percentage WT vehicle and represent the mean ± SD for three independent experiments. (E) Hepatocytes were treated with the indicated concentrations of C13 for 3 hr, and lysates were blotted with the indicated antibodies.
Lipid synthesis was determined by labeling adherent cultures of primary hepatocytes with [1-^14C]acetate. After overnight culture, hepatocytes (5 × 10^5) were washed with warm PBS and allowed to rest for 3 hr in fresh M199. Cells were treated with vehicle (0.1% DMSO) or the indicated compounds and labeled with 1 mCi⋅mmol^−1 [1-^14C]acetate for 3 hr. Cells were washed with ice-cold PBS, gently scraped into 0.5 ml PBS and saponified in methanolic KOH at 80°C for 1 hr. Nonsaponifiable and saponifiable lipids were extracted with petroleum ether before and after acidification with HCl. Lipid fractions were washed with 5% HAc, dried using N2, and dissolved in scintillant for the determination of [^14C] incorporation. Lipogenesis in hepatocytes from AMPKβ1/β2-KO mice was determined in media containing [^3H]acetate (0.2 mCi⋅mmol^−1). After 4 hr labeling, total lipids were extracted using the method of [Bligh and Dyer (1959)], and incorporated [^3H] was determined by scintillation counting. The results are expressed as micromoles acetate incorporated per gram-hour.

Row | Structure (SMILES) | effect on enzyme activity [1] | reduction of lipid synthesis ([2]; 1 μM, WT cells) | IC50 ([2]; [14C]acetate, 3 hr, read-out: IC50, inhibition of lipid synthesis, nonsaponifiable lipids) [nM] | IC50 ([2]; [14C]acetate, 3 hr, read-out: IC50, inhibition of lipid synthesis, saponifiable lipids) [nM] | concentration of maximal effect on lipid synthesis ([2]; [14C]acetate, 3 hr) [µM] | potency relative to A769662 ([2]; similar inhibition with 3 μM C13 and 100 μM A769662)
1 | O=P(O)(O)c1ccc(-c2cc(O)on2)o1 [Compound C2, 5-(5-hydroxyl-isoxazol-3-yl)-furan-2-phosphonic acid] | None of these enzymes were affected | – | – | – | – | –
2 | CC(C)C(=O)OCOP(=O)(OCOC(=O)C(C)C)c1ccc(C2=NOC(=O)C2)o1 [Compound C13] | – | about 40% | 1500 | 1700 | 30 | ≈ 30 fold
